# In patent US20250213547A1, “METHODS OF TREATING NEUROLOGICAL DISEASES” (priority 2022, published 2025):
# Like-named read-outs stand apart in the source and are kept apart here.
# What was measured:
# plasma 24HC [1] = assay: Multiple rising dose study: pharmacodynamics, plasma 24HC; assay type: in vivo, human
# Description: An 8 mL blood sample was collected to obtain plasma 24HC levels for PD analysis on day 1 and day 14 at 30 minutes pre-dose and at 30 minutes, and 1, 2, 4, 8, 12, 16, and 24 hours post-dose. The mean 24-hour area under the effect curve (AUEC24), presented as the percent change in 24HC from baseline, for doses 100, 300, and 400 mg were −46.8, −61.9, and −62.7, respectively. […] Example 7 below further describes the study's PD protocol and trial results, including safety (example 8).
# Plasma 24HC collection and measurement were as described in example 5, with the exception that the 30—minute pre-dose sampling occurred on day 1, 7, 12, 13 and 14, and the 24-hour sampling occurred on day 1 and 14. Assay quality control measures, parameter and statistical analyses were performed as described in example 5. […] Subjects in the 300 mg BID and 600 mg QD cohorts discontinued treatment after day 10 due to some subjects experiencing adverse effects.
# plasma 24HC [2] = assay: Healthy Japanese subjects, Part 1: plasma 24HC pharmacodynamics; assay type: in vivo, human; details: for AUEC24 of plasma 24HC / AUECt of plasma 24HC (time 0 to last sampling time point) / E24 of plasma 24HC (observed effect at 24 hours) / Emax of plasma 24HC (maximum drug-induced effect): mean (% CV); for Emax: Homo sapiens, read-out: % change from Baseline in Emax of plasma 24HC; for Emax / % change from Baseline in AUEC24 of plasma 24HC / % change from Baseline in E24 of plasma 24HC: mean; for Time to Emax of plasma 24HC: median (min-max)
# Description: On Day 1 of each dose level, a single dose of TAK-935 or placebo was administered, and safety, PK and PD were evaluated.
# Blood samples for PD analysis of plasma 24HC level were collected into blood collection tubes (vacutainer) containing the anticoagulant K2EDTA.
# The PD assessments described below were performed at the time points stipulated in the schedule of procedures. The additional PD endpoints included the following PD parameters for plasma 24HC: […]
# CH24H = target: T1, CH24H (Homo sapiens, UniProt Q9Y6A2); assay: PK/PD (PK/OE/24HC) turnover modeling; details: for BL / IC50 / IGAM / Imax / KOUT: ELEKTRA subjects; for BL: 24HC baseline
# T1 construct: from tissue; host or cells: brain of living human trial subjects (in vivo)
# T1 sequence (Q9Y6A2 whole entry): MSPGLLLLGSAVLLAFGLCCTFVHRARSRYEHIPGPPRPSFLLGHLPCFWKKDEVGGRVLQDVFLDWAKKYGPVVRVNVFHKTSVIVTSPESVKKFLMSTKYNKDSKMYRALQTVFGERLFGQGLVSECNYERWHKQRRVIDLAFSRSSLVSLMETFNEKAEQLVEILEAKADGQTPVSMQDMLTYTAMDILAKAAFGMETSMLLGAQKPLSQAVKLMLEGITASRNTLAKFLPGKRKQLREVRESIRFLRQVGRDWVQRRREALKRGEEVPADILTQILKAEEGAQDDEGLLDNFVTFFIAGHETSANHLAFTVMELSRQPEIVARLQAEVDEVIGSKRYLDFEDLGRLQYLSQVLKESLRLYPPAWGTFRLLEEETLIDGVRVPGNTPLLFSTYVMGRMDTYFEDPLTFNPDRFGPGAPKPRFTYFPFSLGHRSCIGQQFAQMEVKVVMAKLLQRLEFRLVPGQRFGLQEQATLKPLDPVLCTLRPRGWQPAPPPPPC
# Description: Similar to the PK model, the PK/PD model was developed as a population mixed-effects model and incorporated the individual PK parameters from the final PK population model. A turnover model was used to characterize changes in plasma 24HC overtime. Plasma 24HC was considered to be at steady-state baseline (BL) before the start of treatment. […] PK/PD covariates were screened in a procedure similar to the PK covariates. In the final PK/PD model, two covariates, A1-AGLP and body weight affected baseline 24HC.
# The PK/PD analysis dataset consisted of 2165 24HC observations from 3 phase I trials. Four subjects from the ELEKTRA study with large IC50 estimates were excluded from the dataset. Additionally, 42 individuals with large conditional weighted residuals were excluded from the dataset. The final dataset contained 2107 24HC observations from 248 subjects. Table 26 summarizes the modeling dataset with reference to example numbers, respective clinical trial ID, subject numbers, regimen, and number of observations and doses. Tables 27 and 28 summarize the categorical covariates used in PK/OE/24HC analysis from the entire dataset and the ELEKTRA study subset, respectively.
# Tables 29 and 30 summarize the mean continuous variables used in the PK/OE/24HC covariate analysis from the entire PK/OE/24HC population studied and the ELEKTRA subset, respectively. In addition to the shared variables, the PK/PD dataset contained the individual final estimates of the population PK model parameters (IND_ALAG1, IND_KA, IND_CL, IND_V2, IND_Q, IND_V3, and IND_F1). Subjects without individual PK parameter estimates (e.g. subjects from the placebo arms) were assigned to the respective geometric mean of the estimated individual parameter values.
# A turnover model was used to describe changes in 24HC concentration over time. […] The following formula estimates change in 24HC: […]
# The indirect exposure effect (EFF) was estimated by an Imax model:
# The effect-site concentration was implemented as a delayed equilibrium with the plasma/brain transit rate parameter (KPLBR):
# The scaling parameter KPLBR was previously estimated in a competitive enzyme occupancy model derived from PET brain imaging data (NCT02497235, Table 19). Parameters derived from this base model were fixed at their previous final PK population estimates derived from example 12. However, no random effects could be estimated without enzyme occupancy data. FIG. 26 depicts the basic model structure in relation to observed and unobserved data. There was a strong growth-related increase in baseline 24HC levels, which was only observed in young subjects.
# The following variables were screened by forward inclusion, backward exclusion F-tests: • Growth/maturity: Weight, BMI, and age • Protein binding: Albumin (ALB), A1-AGLP • Liver function: AST, ALT, GGT, and ALP • Kidney function: Creatinine clearance (CRCL), eGFR • Categorical variables: Asian, sex. Ethnicity, and disease type
smiles,measurement,setting,value
O=C(c1cccnc1-c1ccncc1)N1CCC(O)(Cc2ccccc2)CC1 [soticlestat],"24HC AUEC24, mean, percent change from baseline (day −1)",plasma 24HC [1]; 100 mg QD day 1,−8.15%
same,"24HC E24, mean, percent change from baseline (day −1)",plasma 24HC [1]; 100 mg QD day 1,−20.9%
same,"24HC AUEC24, mean, percent change from baseline (day −1)",plasma 24HC [1]; 100 mg QD day 14,−46.8%
same,"24HC E24, mean, percent change from baseline (day −1)",plasma 24HC [1]; 100 mg QD day 14,−49.1%
same,"24HC AUEC24, mean, percent change from baseline (day −1)",plasma 24HC [1]; 300 mg BID day 1,−6.90%
same,"24HC E24, mean, percent change from baseline (day −1)",plasma 24HC [1]; 300 mg BID day 1,−10.5%
same,"24HC AUEC24, mean, percent change from baseline (day −1)",plasma 24HC [1]; 300 mg QD day 1,−12.7%
same,"24HC E24, mean, percent change from baseline (day −1)",plasma 24HC [1]; 300 mg QD day 1,−22.4%
same,"24HC AUEC24, mean, percent change from baseline (day −1)",plasma 24HC [1]; 300 mg QD day 14,−61.9%
same,"24HC E24, mean, percent change from baseline (day −1)",plasma 24HC [1]; 300 mg QD day 14,−63.8%
same,"24HC AUEC24, mean, percent change from baseline (day −1)",plasma 24HC [1]; 400 mg QD day 1,−11.7%
same,"24HC E24, mean, percent change from baseline (day −1)",plasma 24HC [1]; 400 mg QD day 1,−28.4%
same,"24HC AUEC24, mean, percent change from baseline (day −1)",plasma 24HC [1]; 400 mg QD day 14,−62.7%
same,"24HC E24, mean, percent change from baseline (day −1)",plasma 24HC [1]; 400 mg QD day 14,−65.6%
same,"24HC AUEC24, mean, percent change from baseline (day −1)",plasma 24HC [1]; 600 mg QD day 1,−14.0%
same,"24HC E24, mean, percent change from baseline (day −1)",plasma 24HC [1]; 600 mg QD day 1,−30.6%
same,maximum decrease in percent change from Baseline of mean AUEC24,"plasma 24HC [2]; 1200 mg single dose, compared with placebo",approximately 11.4%
same,AUEC24 of plasma 24HC,"plasma 24HC [2]; Day 1, single dose 200 mg",1017 (27.5) h*ng/mL
same,AUEC24 of plasma 24HC,"plasma 24HC [2]; Day 1, single dose 600 mg",1311 (30.2) h*ng/mL
same,AUEC24 of plasma 24HC,"plasma 24HC [2]; Day 1, single dose 1200 mg",898.3 (16.6) h*ng/mL
same,Emax,plasma 24HC [2]; single dose 200 mg,-17.7%
same,Emax,plasma 24HC [2]; single dose 600 mg,-21.4%
same,Emax,plasma 24HC [2]; single dose 1200 mg,-29.7%
same,% change from Baseline in AUEC24 of plasma 24HC,plasma 24HC [2]; single dose 200 mg,−8.875%
same,% change from Baseline in E24 of plasma 24HC,plasma 24HC [2]; single dose 200 mg,−20.29%
same,AUECt of plasma 24HC (time 0 to last sampling time point),plasma 24HC [2]; single dose 200 mg,1918 (26.0) h*ng/mL
same,E24 of plasma 24HC (observed effect at 24 hours),plasma 24HC [2]; single dose 200 mg,39.95 (25.4) ng/mL
same,Emax of plasma 24HC (maximum drug-induced effect),plasma 24HC [2]; single dose 200 mg,35.25 (24.3) ng/mL
same,Time to Emax of plasma 24HC,plasma 24HC [2]; single dose 200 mg,48.00 (48.0-48.0) h
same,% change from Baseline in AUEC24 of plasma 24HC,plasma 24HC [2]; single dose 600 mg,−8.482%
same,% change from Baseline in E24 of plasma 24HC,plasma 24HC [2]; single dose 600 mg,−24.02%
same,AUECt of plasma 24HC (time 0 to last sampling time point),plasma 24HC [2]; single dose 600 mg,2425 (31.2) h*ng/mL
same,E24 of plasma 24HC (observed effect at 24 hours),plasma 24HC [2]; single dose 600 mg,48.47 (32.0) ng/mL
same,Emax of plasma 24HC (maximum drug-induced effect),plasma 24HC [2]; single dose 600 mg,43.25 (35.3) ng/mL
same,Time to Emax of plasma 24HC,plasma 24HC [2]; single dose 600 mg,48.00 (24.0-48.0) h
same,% change from Baseline in AUEC24 of plasma 24HC,plasma 24HC [2]; single dose 1200 mg,−11.36%
same,% change from Baseline in E24 of plasma 24HC,plasma 24HC [2]; single dose 1200 mg,−22.65%
same,AUECt of plasma 24HC (time 0 to last sampling time point),plasma 24HC [2]; single dose 1200 mg,1627 (18.7) h*ng/mL
same,E24 of plasma 24HC (observed effect at 24 hours),plasma 24HC [2]; single dose 1200 mg,33.57 (19.8) ng/mL
same,Emax of plasma 24HC (maximum drug-induced effect),plasma 24HC [2]; single dose 1200 mg,27.30 (24.4) ng/mL
same,Time to Emax of plasma 24HC,plasma 24HC [2]; single dose 1200 mg,48.00 (48.0-48.0) h
same,KOUT typical value,CH24H; 24HC elimination rate,0.0215 h⁻¹
same,BL,CH24H; Mean,96.4 ng/mL
same,BL,CH24H; Median,84.775 ng/mL
same,BL,CH24H; Range,31.63 to 303.45 ng/mL
same,IC50,CH24H; Mean,0.0128 µg/mL
same,IGAM,CH24H; Mean,0.83
same,Imax,CH24H; Mean,93.5%
same,KOUT,CH24H; Mean,0.022 h⁻¹
same,IC50,CH24H; Median,0.01006 µg/mL
same,IGAM,CH24H; Median,0.83
same,Imax,CH24H; Median,93.5%
same,KOUT,CH24H; Median,0.022 h⁻¹
same,IC50,CH24H; Range,0.00217 to 0.076 µg/mL
same,IGAM,CH24H; Range,0.83-0.83
same,Imax,CH24H; Range,93.5-93.5%
same,KOUT,CH24H; Range,0.022-0.022 1/h
same,"maximum inhibition of 24HC synthesis (Imax), typical value",CH24H; PK/PD turnover model,93%
same,"IC50 for 24HC, typical value","CH24H; PK/PD turnover model, soticlestat concentration",0.0101 µg/mL
same,24HC Baseline (BL): age cut-off,CH24H; covariate on BL,21.2 y
same,24HC Baseline (BL) typical value,CH24H; final PK/OE/24HC model,50.5 ng/mL
same,Enzyme Occupancy: KPLBR plasma-brain rate,"CH24H; final PK/OE/24HC model, fixed",0.254 h⁻¹
same,plasma/brain scaling parameter KPLBR (fixed),CH24H; from PET enzyme occupancy model,0.254 h⁻¹
same,Imax typical value,CH24H; maximum inhibition of 24HC,93.5%
